Source: patent US20230346735A1, “Nutritional Composition Comprising Carnitine and Method for Treating or Preventing an Infection in a Mammal” (priority 2020, published 2023)
Marks after values point to notes of the source that are not given here.

How the values were obtained:
glutathione peroxidase = experiment: Antioxidant capacity: glutathione peroxidase in exercised rats; assay type: in vivo, rat; conditions: 6 weeks
Experimental: Fifty-six (56) Male Wistar rats that were 8-week old were obtained. The rats were reared at the temperature of 22 ± 2° C., the humidity of 55 ± 5%, and with a 12-hrs light-12-hrs dark cycle. All procedures involving rats were conducted in strict compliance with the relevant laws, the Animal Welfare Act, Public Health Services Policy, and guidelines established by the Institutional Animal Care and Use Committee of the Institute of the contracted University which completed the study.
After a week of the adaptation period, the rats were divided into eight equal groups containing seven rats each. The initial body weights of the rats were similar in all the groups (214.53 grams ± 4.67; P > 0.05).
Groups 1 and 2 were not subjected to an exercise routine. Groups 3-8 were subjected to an exercise regimen consisting of a week training period with an incremental exercise capacity described below. After the week training period the exercise regimen followed was each rat in Groups 3-8 were subjected to 6 weeks of running at 25 m/min during 45 min […]. […] These correspond to 0, 250, 500, 1000, 2000 and 4000 mg per day for humans, respectively.
The exercised rats were subjected to treadmill exercise on a motorized rodent treadmill (Commat Limited, Ankara, Turkey). The treadmill contained a stimulus grid at the back end of the treadmill giving an electric shock when the animal placed its paw on the grid. […] To eliminate the diurnal variations, all exercise tests were applied during the same time of the day. The week of training period was provided as pre-training practice for the animals to get familiar with the treadmill equipment and handling. In doing so, the rats in the exercise training groups were accustomed by treadmill exercise over 5 days such that: (i) 1st day, 10 m/min for 10 min, (ii) 2nd day, 20 m/min for 10 min, (iii) 3rd day, 25 m/min for 10 min, (iv) 4th day, 25 m/min for 20 min and (v) 5th day, 25 m/min for 30 min. After the training period, the rats in treadmill exercise groups ran on the treadmill 25 m/min for 45 min/ per day and five days per week for 6 weeks according to the protocol described by Sahin et al. Capsaicinoids Improve the Consequences of Physical Activity. Toxicol Rep. 2018;5:598-607, which is hereby incorporated by reference.
The exercise regimen was used to induce an inflammation and oxidative stress conditions. […] The results of malondialdehyde, superoxide dismutase, catalase, and glutathione peroxidase for each rat group are shown in TABLE 2.

TMPRSS2 = experiment: Rat plasma serum ELISA, TMPRSS2; assay type: in vivo; conditions: exercised rats, FIG. 5D
Furin = experiment: Human study, serum ELISA, Furin; assay type: in vivo; conditions: 2 g daily, 5 weeks, 48 hours after exercise challenge, versus placebo
Experimental: A human study was run with a total of 80 healthy male and female subjects ranging from 21 to 65 years of age, who were active (i.e. 30 minutes per day of moderate activity, 3 days per week) are randomized into two groups. […] Seventy-three subjects completed the trial and biomarker data were analyzed from the sera of the 73 completers. Sera were collected for analysis of C-Reactive Protein (CRP), ACE 1, ACE 2, TMPRSS 2, the Tumor Necrosis Factor alpha (TNF-alpha), and Furin at baseline in the beginning of the trial, at week 5 and 48 hr after an exercise challenge as described (Clinicaltrials.gov NCT04420377). The exercise challenge serves as surrogate to the inflammation stimulus.
To obtain human sera, venous blood was extracted by venipuncture of the antecubital vein using a 21-gauge syringe and collected into a 10 mL EDTA vacutainer tube (BD Vacutainer®, Becton, Dickinson and Company, Franklin Lakes, NJ) by a certified phlebotomist. […] Human ACE-1, ACE-2, TMPRSS2, Furin, CRP and TNF-alpha protein levels were assessed using commercially available ELISA kits, according the manufacturer recommendations, ACE-1 (R&D systems Inc., Minneapolis, MN, USA), ACE-2 (RayBiotech inc., Peachtree Corners, GA), TMPRSS2 (Novus Biologicals, Littleton, CO), CRP (R&D Systems Inc., Minneapolis, MN), TNF-alpha (Novus Biologicals, Littleton, CO), and Furin (Sigma Aldrich, St. Louis, MO). […]

With `C[N+](C)(C)C[C@H](O)CC(=O)[O-]` [L-carnitine] the GSHPx (glutathione peroxidase; Car200: 200 mg/kg oral gavage, no exercise) was 48.74±1.11^d U/mg protein, the GSHPx (glutathione peroxidase; Ex+Car25: exercise, 25 mg/kg oral gavage) was 49.75±1.08^d U/mg protein and the GSHPx (glutathione peroxidase; Ex+Car50: exercise, 50 mg/kg oral gavage) was 55.91±0.85^c U/mg protein. For the same compound, the GSHPx (glutathione peroxidase; Ex+Car100: exercise, 100 mg/kg oral gavage) was 59.57±0.68^bc U/mg protein, the GSHPx (glutathione peroxidase; Ex+Car200: exercise, 200 mg/kg oral gavage) was 62.58+1.03^b U/mg protein and the GSHPx (glutathione peroxidase; Ex+Car400: exercise, 400 mg/kg oral gavage) was 69.06±1.53^a U/mg protein. For the same compound, the “serum TMPRSS2” value (TMPRSS2) was “controlling TMPRSS2” and the Furin serum levels (Furin) was “significant decrease”.
